This passage reports T/C results from PubChem BioAssay AID330 (DTP/NCI, 2004).

Several values for one entry are separate records, joined by “and”; a condition that tells them apart may be missing. Equal values may be shown once. Inconclusive results and toxic doses are left out.

In the experiment the test system is P388 leukemia ip, CD2F1 mice, survival T/C. Put plainly: NCI In Vivo Anticancer Drug Screen. Data for tumor model P388 Leukemia (intraperitoneal) in CD2F1 (CDF1) mice. The conditions noted are these: endpoint: median survival time, higher = longer survival. The method, boiled down:
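Mice carrying the transplanted tumor received test compound or vehicle. Survival was recorded in each group, and the value is the treated-group measurement divided by that of the vehicle-treated control group.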

Consider `O=C(CSc1nc(-c2ccccc2)c(-c2ccccc2)o1)N1CCOCC1`, for which the T/C is 105 % of control (dose: 12.5 mg/kg/injection, schedule: Q01DX009 (ip), vehicle: Klucel (hydroxypropylcellulose) (HPC)); 105 % of control (dose: 25.0 mg/kg/injection, schedule: Q01DX009 (ip), vehicle: Klucel (hydroxypropylcellulose) (HPC)); 106 % of control and 110 % of control (dose: 50.0 mg/kg/injection, schedule: Q01DX009 (ip), vehicle: Klucel (hydroxypropylcellulose) (HPC)); 107 % of control and 120 % of control (dose: 100.0 mg/kg/injection, schedule: Q01DX009 (ip), vehicle: Klucel (hydroxypropylcellulose) (HPC)); 110 % of control (dose: 200.0 mg/kg/injection, schedule: Q01DX009 (ip), vehicle: Klucel (hydroxypropylcellulose) (HPC)).
`CC1(C)N=C(N)N=C(N)N1c1ccc(CCCCc2ccc(S(=O)(=O)F)cc2)c(Cl)c1`: the T/C runs as follows: (dose: 13.2 mg/kg/injection, schedule: Q01DX009 (ip), vehicle: saline) 154 % of control; (dose: 20.0 mg/kg/injection, schedule: Q01DX009 (ip), vehicle: saline) 159 % of control; (dose: 30.0 mg/kg/injection, schedule: Q01DX009 (ip), vehicle: saline) 159 % of control; (dose: 45.0 mg/kg/injection, schedule: Q01DX009 (ip), vehicle: saline) 186 % of control.
On to `CCCCSc1ccc(N=[N+]([O-])c2ccc(SCCCC)nc2SCCCC)c(SCCCC)n1`, for which the T/C runs as follows: (dose: 50.0 mg/kg/injection, schedule: Q01DX009 (ip), vehicle: saline with Tween-80) 94 % of control; (dose: 100.0 mg/kg/injection, schedule: Q01DX009 (ip), vehicle: saline with Tween-80) 90 % of control; (dose: 200.0 mg/kg/injection, schedule: Q01DX009 (ip), vehicle: saline with Tween-80) 88 % of control.
Take `CCCNC12CN3CN(CN(C3)C1)C2`: the T/C (dose: 100.0 mg/kg/injection, schedule: Q04DX003 (ip), vehicle: saline) was 99 % of control; the T/C (dose: 200.0 mg/kg/injection, schedule: Q04DX003 (ip), vehicle: saline) was 100 % of control; the T/C (dose: 400.0 mg/kg/injection, schedule: Q04DX003 (ip), vehicle: saline) is 95 % of control.
On to `COc1cc2c(N)nc(N3CCN(C(=O)OCC(C)(C)O)CC3)nc2c(OC)c1OC`, for which the T/C (dose: 50.0 mg/kg/injection, schedule: Q01DX005 (ip), vehicle: suspension in saline) is 95 % of control; the T/C (dose: 100.0 mg/kg/injection, schedule: Q01DX005 (ip), vehicle: suspension in saline) is 100 % of control; the T/C (dose: 200.0 mg/kg/injection, schedule: Q01DX005 (ip), vehicle: suspension in saline) was 113 % of control.
For the molecule `Cc1cc2ccccc2c(N=Cc2cc(Br)cc(Br)c2O)c1C#N`, the T/C was 95 % of control (dose: 100.0 mg/kg/injection, schedule: Q01DX001 (ip), vehicle: saline with Tween-80); 98 % of control (dose: 200.0 mg/kg/injection, schedule: Q01DX001 (ip), vehicle: saline with Tween-80); 112 % of control (dose: 400.0 mg/kg/injection, schedule: Q01DX001 (ip), vehicle: saline with Tween-80).
With `CC(C)C(C)C(O)C(O)C(C)C1CCC2C3COC(=O)C4CC(O)C(O)CC4(C)C3CCC12C` (stereo unspecified), the T/C reads like this: (dose: 0.75 mg/kg/injection, schedule: Q01DX009 (ip), vehicle: saline with Tween-80) 106 % of control; (dose: 1.05 mg/kg/injection, schedule: Q01DX009 (ip), vehicle: saline with Tween-80) 98 % of control; (dose: 1.5 mg/kg/injection, schedule: Q01DX009 (ip), vehicle: saline with Tween-80) 112 % of control; (dose: 2.1 mg/kg/injection, schedule: Q01DX009 (ip), vehicle: saline with Tween-80) 103 % of control; (dose: 3.0 mg/kg/injection, schedule: Q01DX009 (ip), vehicle: saline with Tween-80) 99 % of control; (dose: 4.2 mg/kg/injection, schedule: Q01DX009 (ip), vehicle: saline with Tween-80) 100 % of control. In addition, under “dose: 6.0 mg/kg/injection, schedule: Q01DX009 (ip), vehicle: saline with Tween-80”, the T/C is 103 % of control.
As for `COc1ccc(/C=C2\C(=O)C(c3ccccc3)N(c3ccccc3)C2=O)cc1` (stereo unspecified), the T/C runs as follows: (dose: 12.5 mg/kg/injection, schedule: Q04DX002 (ip), vehicle: saline with Tween-80) 91 % of control; (dose: 25.0 mg/kg/injection, schedule: Q04DX002 (ip), vehicle: saline with Tween-80) 92 % of control; (dose: 50.0 mg/kg/injection, schedule: Q04DX002 (ip), vehicle: saline with Tween-80) 98 % of control.
Regarding `COc1ccccc1C1OC(c2ccccc2OC)C2CCN(C)C2(C)O1` (stereo unspecified), the T/C is, setting by setting: (dose: 100.0 mg/kg/injection, schedule: Q04DX002 (ip), vehicle: saline with Tween-80) 92 % of control; (dose: 200.0 mg/kg/injection, schedule: Q04DX002 (ip), vehicle: saline with Tween-80) 91 % of control; (dose: 400.0 mg/kg/injection, schedule: Q04DX002 (ip), vehicle: saline with Tween-80) 101 % of control.
In the case of `O=c1[nH]cnc2sc3c(c12)CCC3`, the T/C is 100 % of control (dose: 60.0 mg/kg/injection, schedule: Q01DX005 (ip), vehicle: saline with Tween-80); 88 % of control (dose: 120.0 mg/kg/injection, schedule: Q01DX005 (ip), vehicle: saline with Tween-80); 94 % of control (dose: 240.0 mg/kg/injection, schedule: Q01DX005 (ip), vehicle: saline with Tween-80).
With `CC(CO)CCC1OC2CC3C4CC=C5C=CCCC5(C)C4CCC3(C)C2C1C` (stereo unspecified), the T/C is, setting by setting: (dose: 2.25 mg/kg/injection, schedule: Q01DX005 (ip), vehicle: Klucel (hydroxypropylcellulose) (HPC)) 107 % of control; (dose: 4.5 mg/kg/injection, schedule: Q01DX005 (ip), vehicle: Klucel (hydroxypropylcellulose) (HPC)) 104 % of control; (dose: 9.0 mg/kg/injection, schedule: Q01DX005 (ip), vehicle: Klucel (hydroxypropylcellulose) (HPC)) 97 % of control; (dose: 18.0 mg/kg/injection, schedule: Q01DX005 (ip), vehicle: Klucel (hydroxypropylcellulose) (HPC)) 96 % of control; (dose: 36.0 mg/kg/injection, schedule: Q01DX005 (ip), vehicle: Klucel (hydroxypropylcellulose) (HPC)) 124 % of control.
With `NNC(=O)CS(=O)(=O)NCc1ccccc1`, the T/C (dose: 50.0 mg/kg/injection, schedule: Q01DX005 (ip), vehicle: Klucel (hydroxypropylcellulose) (HPC)) was 100 % of control; the T/C (dose: 100.0 mg/kg/injection, schedule: Q01DX005 (ip), vehicle: Klucel (hydroxypropylcellulose) (HPC)) was 99 % of control; the T/C (dose: 200.0 mg/kg/injection, schedule: Q01DX005 (ip), vehicle: Klucel (hydroxypropylcellulose) (HPC)) was 97 % of control.
`Cc1ccc(S(=O)(=O)OC2CCC3(C)C(CCC4C3CCC3(C)C(C(C)CCCC(C)C)CCC43)C2)cc1` (stereo unspecified): the T/C (dose: 3.0 mg/kg/injection, schedule: Q01DX005 (ip), vehicle: Klucel (hydroxypropylcellulose) (HPC)) was 107 % of control; the T/C (dose: 6.0 mg/kg/injection, schedule: Q01DX005 (ip), vehicle: Klucel (hydroxypropylcellulose) (HPC)) was 117 % of control; the T/C (dose: 12.5 mg/kg/injection, schedule: Q01DX005 (ip), vehicle: Klucel (hydroxypropylcellulose) (HPC)) was 100 % of control.
As to `O=C1OCN2C(=O)CCC12` (stereo unspecified), the T/C runs as follows: (dose: 60.0 mg/kg/injection, schedule: Q01DX005 (ip), vehicle: saline) 109 % of control; (dose: 120.0 mg/kg/injection, schedule: Q01DX005 (ip), vehicle: saline) 97 % of control; (dose: 240.0 mg/kg/injection, schedule: Q01DX005 (ip), vehicle: saline) 86 % of control.
On to `CC1=CCCC(C(C)O)O1` (stereo unspecified), for which the T/C is, setting by setting: (dose: 6.25 mg/kg/injection, schedule: Q01DX009 (ip), vehicle: saline) 107 % of control; (dose: 12.5 mg/kg/injection, schedule: Q01DX009 (ip), vehicle: saline) 104 % of control; (dose: 25.0 mg/kg/injection, schedule: Q01DX009 (ip), vehicle: saline) 105 % of control; (dose: 200.0 mg/kg/injection, schedule: Q01DX009 (ip), vehicle: saline) 87 % of control.
With `N#Cc1ccc(NC(=O)Nc2nncs2)cc1`, the T/C was 115 % of control and 116 % of control (dose: 12.5 mg/kg/injection, schedule: Q01DX009 (ip), vehicle: distilled water + Tween-80); 122 % of control (dose: 25.0 mg/kg/injection, schedule: Q01DX009 (ip), vehicle: distilled water + Tween-80); 104 % of control (dose: 200.0 mg/kg/injection, schedule: Q01DX009 (ip), vehicle: distilled water + Tween-80).
`CN(C)/N=C1/CC(=O)CC(C)(C)C1`: the T/C is 102 % of control (dose: 60.0 mg/kg/injection, schedule: Q01DX005 (ip), vehicle: Klucel (hydroxypropylcellulose) (HPC)); 100 % of control (dose: 120.0 mg/kg/injection, schedule: Q01DX005 (ip), vehicle: Klucel (hydroxypropylcellulose) (HPC)); 99 % of control (dose: 240.0 mg/kg/injection, schedule: Q01DX005 (ip), vehicle: Klucel (hydroxypropylcellulose) (HPC)).
